BindingDB's records for doi:10.1016/s0196-9781(99)00098-4 (Uppsala University, 1999)

Legend:
[1] = target: T1, Neuropeptide Y receptor type 1 (Cavia porcellus, UniProt Q9WVD0)
T1 sequence (Q9WVD0 whole entry): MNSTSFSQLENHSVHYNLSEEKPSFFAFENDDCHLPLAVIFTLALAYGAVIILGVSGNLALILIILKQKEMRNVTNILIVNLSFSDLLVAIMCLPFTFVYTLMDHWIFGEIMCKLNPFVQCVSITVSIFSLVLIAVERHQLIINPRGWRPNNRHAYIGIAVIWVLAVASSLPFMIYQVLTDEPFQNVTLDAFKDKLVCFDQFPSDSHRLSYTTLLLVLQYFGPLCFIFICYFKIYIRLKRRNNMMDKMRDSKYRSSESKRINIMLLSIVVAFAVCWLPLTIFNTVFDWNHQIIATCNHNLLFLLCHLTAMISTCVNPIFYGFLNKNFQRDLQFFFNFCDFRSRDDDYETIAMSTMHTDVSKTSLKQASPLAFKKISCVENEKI

[2] = target: T2, Neuropeptide Y receptor type 1 (Rattus norvegicus, UniProt P21555)
T2 sequence (P21555 whole entry): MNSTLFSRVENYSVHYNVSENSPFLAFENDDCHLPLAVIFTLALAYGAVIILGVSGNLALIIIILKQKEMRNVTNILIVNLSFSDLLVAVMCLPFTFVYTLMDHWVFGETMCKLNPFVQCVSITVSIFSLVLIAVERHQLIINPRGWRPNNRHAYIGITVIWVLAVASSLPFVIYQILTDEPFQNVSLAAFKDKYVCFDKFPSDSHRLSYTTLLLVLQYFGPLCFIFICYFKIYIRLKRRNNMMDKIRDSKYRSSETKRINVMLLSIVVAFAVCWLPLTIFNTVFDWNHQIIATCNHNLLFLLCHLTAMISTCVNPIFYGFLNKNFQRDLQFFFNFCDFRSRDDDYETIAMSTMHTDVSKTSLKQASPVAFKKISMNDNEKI

Row | Ki [1] [nM] | Ki [2] [nM] | Compound
1 | 0.8 | 1.3 | CN(C)CC1CCC(CN=C(N)c2ccc(CC(NC(=O)C(Cc3ccccc3)NS(=O)(=O)c3ccc4ccccc4c3)C(=O)N3CCCC3)cc2)CC1 (stereo not given) [CAS_5312150]
2 | 4.9 |  | N=C(N)NCCCC(NC(=O)C(c1ccccc1)c1ccccc1)C(=O)NCc1ccc(O)cc1 (stereo not given) [NSC_5311023]
3 | 2.4 | 1.4 | H-INPIYRLRY-NH2 [NPY 28-36, [P30, Y32, L34]]
